Results taken from patent publication US20260373283A1, “LIPID NANOPARTICLES AND METHODS OF USING THE SAME FOR TREATING CELL PROLIFERATIVE DISEASES AND DISORDERS” (Northwestern University, priority 2022, published 2026).

Tests used:
[1] = system: CD8+ T cells in CT-2A tumors; experiment: T cell infiltration to brain tumors after systemic delivery; format: in vivo, mouse; conditions: i.v. 2.5 mg/kg diABZI with fractionated RT
Description: FIG. 16. Systemic nanoparticle delivery of diABZI enhances T cell infiltration to brain tumors. C57 mice received intracranial implantation of 7.5×10^4 CT-2A cells, RT (3 Gy×3), and two administrations of saline, free diABZI, or P-LNP/diABZI (2.5 mg/kg diABZI) through intravenous injections. Freshly dissected brains were analyzed by flow cytometry for T cell infiltration. Data are represented as mean±SEM; n=5. *, p<0.05; **, p<0.01; determined by determined by one-way ANOVA with Tukey's multiple comparisons test.
In vivo nanoparticle treatment through systemic delivery. C57BL/6 mice with intracranially implanted CT-2A (7.5×10^4 cells per mouse) were randomly grouped and treated with saline or P-LNP/diABZI (2.5 mg diABZI per kg) through intravenous administration on the ninth, fourteenth, and nineteenth day after tumor implantation. Selected groups of mice also received brain-focused radiotherapy for three consecutive days starting on the sixth day post-tumor implantation. […] Tumor burden was analyzed by hematoxylin and eosin (H&E) staining. Therapeutic effects of P-LNP/diABZI was similarly evaluated in mice implanted with PF8 cells (7.5×10^4 cells per mouse) and received RT and intravenous administrations of saline or P-LNP/diABZI (2.5 mg diABZI per kg) on the eighth and thirteenth day after tumor implantation.

CT-2A glioma [2] = experiment: survival, CT-2A-bearing mice, systemic delivery with RT; format: in vivo, mouse; conditions: i.v. 2.5 mg/kg diABZI with fractionated RT
Description: FIGS. 6A-6F. Systemic nanoparticle delivery of diABZI potentiates anti-glioma effects of RT. FIGS. 6A-6E, C57 mice received intracranial implantation of 7.5×10^4 CT-2A cells and three administrations of saline, free diABZI, or P-LNP/diABZI (2.5 mg/kg diABZI) through intravenous injections. Selected groups of mice received RT (3 Gy×3) as monotherapy or combination therapy. FIG. 6A, Survival curves of CT-2A-bearing C57 mice received different treatments. n=6-7 mice per group. Survival curves were compared using Log-rank test for those with proportional hazards and Renyi statistics for those with crossing hazards with p values adjusted by Bonferroni correction. […] Tumor burden in control and LTS mice were evaluated through H&E staining. FIG. 6C, 100 d post-rechallenge, freshly dissected brains from LTS, age-matched tumor-bearing mice, and age-matched non-tumor control mice were analyzed by flow cytometry for immune composition and CD8^+ T cell phenotypes. Data are represented as mean±SEM; n=5. *, p<0.05; **, p<0.01; determined by Student's t-test. […] FIG. 6D, Histology of the brains was evaluated by H. E. staining. […] FIG. 6E, Freshly dissected brains were analyzed by flow cytometry for immune composition, TAMC, and CD8^+ T cell phenotypes. Data are represented as mean±SEM; n=5. **, p<0.01; ***, p<0.001; ****, p<0.0001; determined by Student's t-test. […]

T cells = experiment: cytotoxicity to T cells by Annexin V staining; format: cell-based, mouse; conditions: 200 nM, 48 h
Description: (§1) BMDM, bone marrow-derived macrophage. […] FIG. 10E, Cytotoxicity of diABZI to T cells was tested by Annexin V staining using flow cytometry 48 h after treatment with diABZI at 200 nM.
(§2) In vitro analysis of diABZI effects on TAMC and T cell. In vitro generated TAMCs (1×10^6 cells/well) in 6-well plate were treated with diABZI at 200 nM. After 6 h of treatment, cells were washed and collected for RNA isolation using the RNEasy Plus Mini Kit (Qiagen). Total RNA was quantified by Nanodrop (Thermo Scientific), and cDNA was synthesized using the iScript cDNA synthesis kit (Bio-Rad). Gene expression was analyzed by quantitative PCR analysis (Bio-Rad). Alternatively, flow cytometric analysis was performed 24 h after treatment. To determine the cytotoxicity of diABZI to T cells, T cells were isolated using mouse T cell isolation kit (STEMCELL Technologies) and seeded at 2×10^5 cells/well in 96-well U bottom plates with the addition of Dynabeads mouse T cell activator CD3/CD28 (Fisher) and IL-2 (PeproTech) at 50 U/ml. Cells were treated with diABZI at 200 nM for 48 h and collected for annexin V assay (BioLegend) using flow cytometry.

TAMCs [3] = experiment: pro-inflammatory gene expression in TAMCs by qPCR; format: cell-based, mouse; conditions: diABZI 200 nM, 6 h
Description: as §2

TAMCs [4] = experiment: ARG1, CD206, CD86 expression in TAMCs by flow cytometry; format: cell-based, mouse; conditions: 24 h post-treatment
Description: as §1, §2

CT-2A glioma [5] = experiment: survival with Stupp treatment (RT plus TMZ); format: in vivo, mouse; conditions: RT+TMZ (3 Gy×3; TMZ 50 mg/kg×3 i.p.); control 27.5 days
Description: FIG. 15. B-LNP treatment improves antitumor effects of RT plus concomitant adjuvant TMZ in GBM-bearing mice. Survival curves of C57 mice received intracranial implantation of 5×10^4 CT-2A cells and two administrations of saline, B-LNP/diABZI (0.25 mg/kg diABZI), or a combination of free diABZI and therapeutic antibodies (αPD-L1+αCD47) (referred to as cocktails) through implanted cannula. Selected groups of mice also received RT (3 Gy×3) plus TMZ through intraperitoneal injection (50 mg/kg×3). n=7-10 mice per group. **, p<0.01; determined by Log-rank test for groups with proportional hazards and Renyi statistics for groups with crossing hazards. p values were adjusted by Bonferroni correction.
In vivo B-LNP/diABZI combined with Stupp treatment. C57BL/6 mice with intracranially implanted CT-2A (5×10^4 cells per mouse) were randomly grouped and received a daily dose of brain-focused irradiation at 3 Gy and TMZ at 50 mg per kg intraperitoneally for three consecutive days starting on the seventh day after tumor cell implantation. Certain groups of mice also received B-LNP/diABZI (0.25 mg diABZI per kg) or a combination of free diABZI and therapeutic antibodies (αPD-L1+αCD47) on the ninth and thirteenth day after tumor implantation through intracranially implanted cannula. All mice were followed for their survival following outlined endpoint protocols.

Row | SMILES | CD8+ T cell tumor infiltration [1] | animal survival in CT-2A glioma model (CT-2A glioma [2]) | cytotoxicity to T cells (T cells) | expression of pro-inflammatory genes in TAMCs (type I IFNs, CCL5, CXCL10) (TAMCs [3]) | ARG1 and CD206 in TAMCs (TAMCs [4]) | CD86 in TAMCs (TAMCs [4]) | median survival (CT-2A glioma [5]) [days]
1 | CCn1nc(C)cc1C(=O)Nc1nc2cc(C(N)=O)cc(OC)c2n1C/C=C/Cn1c(NC(=O)c2cc(C)nn2CC)nc2cc(C(N)=O)cc(OCCCN3CCOCC3)c21 [diABZI] | not free drugs, led to a dramatically enhanced CD8^+ T cell tumor infiltration | not free drugs, led to a dramatically enhanced CD8^+ T cell tumor infiltration (FIG. 16) and animal survival | causes cytotoxicity to T cells | dramatically increased expression of pro-inflammatory genes in TAMCs | reduced levels of immunosuppressive factors ARG1 and CD206 | higher levels of activation factor CD86 | 
2 | Cn1nnc2c(C(N)=O)ncn2c1=O [TMZ, temozolomide] |  |  |  |  |  |  | 36
